Experimental findings from PMC3380826 (2012) are described below.

Test [1] concerns Hum24; d(T2AG3)4 (DNA, G4) TTAGGGTTAGGGTTAGGGTTAGGG
Put plainly: CD melting at 295 nm. Particulars: 10 mM Tris-HCl, 0.1 mM EDTA, pH 7.4, pre-formed G4, 2 µM strand.

Test [2] concerns Hum48; d(T2AG3)8 (DNA, G4) TTAGGGTTAGGGTTAGGGTTAGGGTTAGGGTTAGGGTTAGGGTTAGGG
Put plainly: CD melting at 295 nm. Particulars: 10 mM Tris-HCl, 0.1 mM EDTA, pH 7.4, pre-formed G4, 2 µM strand.

A word on the ΔTm: it is the shift of the melting midpoint relative to a reference. Regarding `OCCN1CCN(c2ccc3[nH]c(-c4cc(OCCOCCOCCOCCOc5cc(-c6nc7cc(N8CCN(CCO)CC8)ccc7[nH]6)cc(-c6nc7cc(N8CCN(CCO)CC8)ccc7[nH]6)c5)cc(-c5nc6cc(N7CCN(CCO)CC7)ccc6[nH]5)c4)nc3c2)CC1`, the thermal shift (ΔTm) is 16 °C in test [1] (100 mM K+, ligand:DNA 10) and 16 °C in test [2] (100 mM K+, ligand:DNA 10).
In the case of `OCCN1CCN(c2ccc3[nH]c(-c4cc(OCCOCCOCCOCCOCCOCCOc5cc(-c6nc7cc(N8CCN(CCO)CC8)ccc7[nH]6)cc(-c6nc7cc(N8CCN(CCO)CC8)ccc7[nH]6)c5)cc(-c5nc6cc(N7CCN(CCO)CC7)ccc6[nH]5)c4)nc3c2)CC1`, the thermal shift (ΔTm) in test [1] (100 mM K+, ligand:DNA 10) came to 22 °C; in test [1] (100 mM Na+, ligand:DNA 10), 11 °C; in test [2] (100 mM K+, ligand:DNA 10), 21 °C; in test [2] (100 mM Na+, ligand:DNA 10), 13 °C.
For `OCCN1CCN(c2ccc3[nH]c(-c4cc(OCCOCCOCCOCCOCCOc5cc(-c6nc7cc(N8CCN(CCO)CC8)ccc7[nH]6)cc(-c6nc7cc(N8CCN(CCO)CC8)ccc7[nH]6)c5)cc(-c5nc6cc(N7CCN(CCO)CC7)ccc6[nH]5)c4)nc3c2)CC1`, the shift in melting temperature (ΔTm) turned out to be 12 °C in test [1] (100 mM K+, ligand:DNA 10) and 18 °C in test [2] (100 mM K+, ligand:DNA 10).
For the molecule `CCOc1cc(-c2nc3ccc(N4CCN(CCO)CC4)cc3[nH]2)cc(-c2nc3ccc(N4CCN(CCO)CC4)cc3[nH]2)c1`, the ΔTm is 5 °C in test [1] (100 mM K+, ligand:DNA 20) and 9 °C in test [2] (100 mM K+, ligand:DNA 20).
